Values of other authors, collected in EP1862927B1, “Descriptors of three-dimensional objects, uses thereof and a method to generate the same” (SILICOS NV, priority 2006, dated 2007).

Molecular target: T1, human soluble epoxide hydrolase (Homo sapiens, UniProt P34913)
T1 sequence (P34913 1-555): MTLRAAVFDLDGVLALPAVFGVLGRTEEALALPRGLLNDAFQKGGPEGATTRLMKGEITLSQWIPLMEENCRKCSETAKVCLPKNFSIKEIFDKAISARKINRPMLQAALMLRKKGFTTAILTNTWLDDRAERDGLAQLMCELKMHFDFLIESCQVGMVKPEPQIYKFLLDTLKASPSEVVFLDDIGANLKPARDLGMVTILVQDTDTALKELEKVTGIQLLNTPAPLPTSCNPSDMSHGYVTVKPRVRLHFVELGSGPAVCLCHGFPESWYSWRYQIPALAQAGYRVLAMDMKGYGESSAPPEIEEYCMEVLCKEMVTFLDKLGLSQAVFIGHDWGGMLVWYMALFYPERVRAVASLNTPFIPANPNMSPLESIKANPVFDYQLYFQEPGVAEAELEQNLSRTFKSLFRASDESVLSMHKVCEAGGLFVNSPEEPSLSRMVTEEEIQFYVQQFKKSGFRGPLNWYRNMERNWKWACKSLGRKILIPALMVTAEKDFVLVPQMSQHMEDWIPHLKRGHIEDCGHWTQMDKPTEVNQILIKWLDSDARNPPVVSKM
Settings: inhibition constants of urea-like molecular species taken from McElroy et al., J. Med. Chem. 46, 1066-1080

Question: Which IC50 does the source give for `O=C(NCC1CCCCC1)NC1C2CC3CC(C2)CC1C3` (stereo not shown) [molecular species 136] here?
Answer: 100 nM
